The text below walks through data of ChEMBL document CHEMBL5465560, “Selectivity Literature for EUbOPEN Chemogenomic Library” (2024).

Assay [1] concerns the target T1, Ephrin type-A receptor 1 (Homo sapiens) (UniProt P21709).
T1 sequence (whole entry): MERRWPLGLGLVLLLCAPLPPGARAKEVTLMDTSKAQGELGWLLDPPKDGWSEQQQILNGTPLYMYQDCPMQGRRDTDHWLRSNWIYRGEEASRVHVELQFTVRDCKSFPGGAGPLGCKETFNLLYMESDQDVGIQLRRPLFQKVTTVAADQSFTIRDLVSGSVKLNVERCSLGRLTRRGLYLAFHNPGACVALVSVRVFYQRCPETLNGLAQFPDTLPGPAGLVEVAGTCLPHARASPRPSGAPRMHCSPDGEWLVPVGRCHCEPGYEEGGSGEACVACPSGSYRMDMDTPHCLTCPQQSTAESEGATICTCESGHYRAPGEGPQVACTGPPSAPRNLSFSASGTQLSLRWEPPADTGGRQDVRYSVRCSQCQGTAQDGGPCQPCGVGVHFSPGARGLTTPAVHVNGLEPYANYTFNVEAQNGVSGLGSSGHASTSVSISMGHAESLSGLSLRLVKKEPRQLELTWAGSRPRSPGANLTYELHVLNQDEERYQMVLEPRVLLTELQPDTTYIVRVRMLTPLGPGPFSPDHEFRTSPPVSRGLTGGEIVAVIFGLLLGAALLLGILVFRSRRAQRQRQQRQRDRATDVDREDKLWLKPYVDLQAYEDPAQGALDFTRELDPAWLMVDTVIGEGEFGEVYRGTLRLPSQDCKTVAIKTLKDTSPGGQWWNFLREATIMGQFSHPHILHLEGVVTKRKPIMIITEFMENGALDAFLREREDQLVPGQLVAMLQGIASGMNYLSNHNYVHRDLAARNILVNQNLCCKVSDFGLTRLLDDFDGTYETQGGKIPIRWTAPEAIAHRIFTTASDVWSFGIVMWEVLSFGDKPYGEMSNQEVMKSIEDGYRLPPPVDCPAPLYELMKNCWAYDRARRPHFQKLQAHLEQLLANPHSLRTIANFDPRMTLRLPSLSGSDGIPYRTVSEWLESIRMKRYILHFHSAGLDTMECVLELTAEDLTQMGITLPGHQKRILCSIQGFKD
The assay is described as follows: Selectivity interaction (Upstate Kinase Profiler service (Millipore)) EUB0000056c EPHA1. The following applies: at 1 µM.

The target in assay [2] is Activin receptor type-1-like (Homo sapiens) (UniProt P37023). As to the kind of experiment: Selectivity interaction (KinomeScan (DiscoverX)) EUB0001079a ACVRL1. The following applies: at 1 µM.
Sequence of Activin receptor type-1-like (Homo sapiens) (P37023 whole entry): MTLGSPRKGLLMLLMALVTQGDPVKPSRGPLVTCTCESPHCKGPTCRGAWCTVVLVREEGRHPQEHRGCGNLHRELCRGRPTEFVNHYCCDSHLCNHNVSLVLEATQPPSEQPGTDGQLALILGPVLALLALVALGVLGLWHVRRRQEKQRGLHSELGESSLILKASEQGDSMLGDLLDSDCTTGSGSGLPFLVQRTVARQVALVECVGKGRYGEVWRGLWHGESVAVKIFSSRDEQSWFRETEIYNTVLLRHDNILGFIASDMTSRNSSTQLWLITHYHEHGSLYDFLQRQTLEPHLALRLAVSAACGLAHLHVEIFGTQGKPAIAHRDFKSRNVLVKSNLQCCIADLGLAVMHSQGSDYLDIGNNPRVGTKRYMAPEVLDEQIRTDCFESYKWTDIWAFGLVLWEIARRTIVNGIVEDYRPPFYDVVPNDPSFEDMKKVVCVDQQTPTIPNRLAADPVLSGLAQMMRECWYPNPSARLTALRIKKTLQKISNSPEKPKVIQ
In assay [3] the target is T2, Tyrosine-protein kinase TXK (Homo sapiens) (UniProt P42681).
T2 sequence (whole entry): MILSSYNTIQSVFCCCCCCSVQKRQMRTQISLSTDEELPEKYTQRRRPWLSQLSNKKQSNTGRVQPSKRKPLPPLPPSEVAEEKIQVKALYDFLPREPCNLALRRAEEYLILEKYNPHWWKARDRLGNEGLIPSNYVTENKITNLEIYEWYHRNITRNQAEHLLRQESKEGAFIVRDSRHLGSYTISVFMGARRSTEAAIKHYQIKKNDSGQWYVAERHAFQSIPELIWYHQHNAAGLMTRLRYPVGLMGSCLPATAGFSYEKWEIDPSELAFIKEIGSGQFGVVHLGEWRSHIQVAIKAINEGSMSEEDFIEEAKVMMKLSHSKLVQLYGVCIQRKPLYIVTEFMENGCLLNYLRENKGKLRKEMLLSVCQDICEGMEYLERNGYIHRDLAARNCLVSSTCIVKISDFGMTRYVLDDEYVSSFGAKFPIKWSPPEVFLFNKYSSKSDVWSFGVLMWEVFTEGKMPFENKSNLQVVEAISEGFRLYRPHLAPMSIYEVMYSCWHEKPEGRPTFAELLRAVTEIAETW
The assay is described as follows: Selectivity interaction (KinomeScan (DiscoverX)) EUB0000092b TXK. Conditions: at 10 µM.

Assay [4] has as its system Tyrosine-protein kinase ABL1 (Homo sapiens), P00519 [F317L]. As to the kind of experiment: Selectivity interaction (KinomeScan (DiscoverX)) EUB0000655a ABL1. Conditions: at 10 µM.
The target of assay [5] is Calcium/calmodulin-dependent protein kinase type II subunit delta (Homo sapiens) (UniProt Q13557). As to the kind of experiment: Selectivity interaction (KinomeScan (DiscoverX)) EUB0000607a CAMK2D. Conditions: at 10 µM.
Assay [6] concerns the target T3, Dual specificity mitogen-activated protein kinase kinase 1 (Homo sapiens, UniProt Q02750). The assay is described as follows: (§1) Selectivity interaction (ActivX KiNativ screen (kinase selectivity in THP-1 cell lysates)) EUB0000639a MAP2K1. Format: subcellular. Conditions: lysate, at 5 µM.
In assay [7] the target is T3, Dual specificity mitogen-activated protein kinase kinase 1. Described as §1. Conditions: lysate. Format: subcellular.
Assay [8] deals with T4, Ephrin type-B receptor 3 (Homo sapiens) (UniProt P54753).
T4 sequence (whole entry): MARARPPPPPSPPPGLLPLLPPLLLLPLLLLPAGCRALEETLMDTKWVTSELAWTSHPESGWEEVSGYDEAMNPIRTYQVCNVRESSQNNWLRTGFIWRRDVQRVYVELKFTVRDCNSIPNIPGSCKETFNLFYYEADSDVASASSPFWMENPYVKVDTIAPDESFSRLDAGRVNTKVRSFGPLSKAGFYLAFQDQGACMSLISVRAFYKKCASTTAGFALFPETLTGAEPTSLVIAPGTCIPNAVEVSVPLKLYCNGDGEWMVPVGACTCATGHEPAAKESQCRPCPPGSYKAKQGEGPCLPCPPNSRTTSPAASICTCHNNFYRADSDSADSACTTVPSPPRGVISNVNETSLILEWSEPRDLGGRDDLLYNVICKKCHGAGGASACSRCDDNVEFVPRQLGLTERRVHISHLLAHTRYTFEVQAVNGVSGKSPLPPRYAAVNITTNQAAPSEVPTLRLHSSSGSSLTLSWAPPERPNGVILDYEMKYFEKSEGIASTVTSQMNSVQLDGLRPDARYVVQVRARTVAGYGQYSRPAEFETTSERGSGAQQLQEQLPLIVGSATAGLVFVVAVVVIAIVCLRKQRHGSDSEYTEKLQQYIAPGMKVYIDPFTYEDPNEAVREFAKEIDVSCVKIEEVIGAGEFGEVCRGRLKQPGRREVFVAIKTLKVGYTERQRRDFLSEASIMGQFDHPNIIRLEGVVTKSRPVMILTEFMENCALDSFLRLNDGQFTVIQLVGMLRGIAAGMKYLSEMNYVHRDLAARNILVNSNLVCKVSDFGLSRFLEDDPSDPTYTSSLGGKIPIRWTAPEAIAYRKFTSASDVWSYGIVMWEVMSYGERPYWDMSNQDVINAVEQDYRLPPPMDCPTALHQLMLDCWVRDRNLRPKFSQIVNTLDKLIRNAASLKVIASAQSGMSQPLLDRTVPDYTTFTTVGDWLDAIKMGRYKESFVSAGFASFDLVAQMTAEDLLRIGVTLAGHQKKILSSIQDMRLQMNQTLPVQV
The assay is described as follows: Selectivity interaction (KinomeScan (DiscoverX)) EUB0000229b EPHB3. The following applies: at 10 µM.

Assay [9] has as its target DNA-dependent protein kinase catalytic subunit (Homo sapiens) (UniProt P78527). As to the kind of experiment: Selectivity interaction (ActivX KiNativ screen (ex vivo kinase selectivity in human PBMCs)) EUB0001619a PRKDC. Conditions: PBMC, at 1 µM. Format: cell-based.

Each structure is given as a SMILES string.

T3 sequence (Q02750 whole entry): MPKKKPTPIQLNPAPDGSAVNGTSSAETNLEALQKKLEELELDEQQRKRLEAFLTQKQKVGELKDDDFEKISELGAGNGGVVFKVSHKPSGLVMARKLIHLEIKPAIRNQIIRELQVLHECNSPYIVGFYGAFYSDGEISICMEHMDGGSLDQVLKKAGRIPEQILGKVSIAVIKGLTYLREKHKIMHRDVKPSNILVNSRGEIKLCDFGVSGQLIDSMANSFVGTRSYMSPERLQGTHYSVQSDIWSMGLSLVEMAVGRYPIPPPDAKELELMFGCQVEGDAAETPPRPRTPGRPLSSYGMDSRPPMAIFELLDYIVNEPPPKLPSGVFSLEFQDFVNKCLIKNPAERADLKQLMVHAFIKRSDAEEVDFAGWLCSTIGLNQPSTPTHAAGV
Sequence of DNA-dependent protein kinase catalytic subunit (Homo sapiens) (P78527 whole entry): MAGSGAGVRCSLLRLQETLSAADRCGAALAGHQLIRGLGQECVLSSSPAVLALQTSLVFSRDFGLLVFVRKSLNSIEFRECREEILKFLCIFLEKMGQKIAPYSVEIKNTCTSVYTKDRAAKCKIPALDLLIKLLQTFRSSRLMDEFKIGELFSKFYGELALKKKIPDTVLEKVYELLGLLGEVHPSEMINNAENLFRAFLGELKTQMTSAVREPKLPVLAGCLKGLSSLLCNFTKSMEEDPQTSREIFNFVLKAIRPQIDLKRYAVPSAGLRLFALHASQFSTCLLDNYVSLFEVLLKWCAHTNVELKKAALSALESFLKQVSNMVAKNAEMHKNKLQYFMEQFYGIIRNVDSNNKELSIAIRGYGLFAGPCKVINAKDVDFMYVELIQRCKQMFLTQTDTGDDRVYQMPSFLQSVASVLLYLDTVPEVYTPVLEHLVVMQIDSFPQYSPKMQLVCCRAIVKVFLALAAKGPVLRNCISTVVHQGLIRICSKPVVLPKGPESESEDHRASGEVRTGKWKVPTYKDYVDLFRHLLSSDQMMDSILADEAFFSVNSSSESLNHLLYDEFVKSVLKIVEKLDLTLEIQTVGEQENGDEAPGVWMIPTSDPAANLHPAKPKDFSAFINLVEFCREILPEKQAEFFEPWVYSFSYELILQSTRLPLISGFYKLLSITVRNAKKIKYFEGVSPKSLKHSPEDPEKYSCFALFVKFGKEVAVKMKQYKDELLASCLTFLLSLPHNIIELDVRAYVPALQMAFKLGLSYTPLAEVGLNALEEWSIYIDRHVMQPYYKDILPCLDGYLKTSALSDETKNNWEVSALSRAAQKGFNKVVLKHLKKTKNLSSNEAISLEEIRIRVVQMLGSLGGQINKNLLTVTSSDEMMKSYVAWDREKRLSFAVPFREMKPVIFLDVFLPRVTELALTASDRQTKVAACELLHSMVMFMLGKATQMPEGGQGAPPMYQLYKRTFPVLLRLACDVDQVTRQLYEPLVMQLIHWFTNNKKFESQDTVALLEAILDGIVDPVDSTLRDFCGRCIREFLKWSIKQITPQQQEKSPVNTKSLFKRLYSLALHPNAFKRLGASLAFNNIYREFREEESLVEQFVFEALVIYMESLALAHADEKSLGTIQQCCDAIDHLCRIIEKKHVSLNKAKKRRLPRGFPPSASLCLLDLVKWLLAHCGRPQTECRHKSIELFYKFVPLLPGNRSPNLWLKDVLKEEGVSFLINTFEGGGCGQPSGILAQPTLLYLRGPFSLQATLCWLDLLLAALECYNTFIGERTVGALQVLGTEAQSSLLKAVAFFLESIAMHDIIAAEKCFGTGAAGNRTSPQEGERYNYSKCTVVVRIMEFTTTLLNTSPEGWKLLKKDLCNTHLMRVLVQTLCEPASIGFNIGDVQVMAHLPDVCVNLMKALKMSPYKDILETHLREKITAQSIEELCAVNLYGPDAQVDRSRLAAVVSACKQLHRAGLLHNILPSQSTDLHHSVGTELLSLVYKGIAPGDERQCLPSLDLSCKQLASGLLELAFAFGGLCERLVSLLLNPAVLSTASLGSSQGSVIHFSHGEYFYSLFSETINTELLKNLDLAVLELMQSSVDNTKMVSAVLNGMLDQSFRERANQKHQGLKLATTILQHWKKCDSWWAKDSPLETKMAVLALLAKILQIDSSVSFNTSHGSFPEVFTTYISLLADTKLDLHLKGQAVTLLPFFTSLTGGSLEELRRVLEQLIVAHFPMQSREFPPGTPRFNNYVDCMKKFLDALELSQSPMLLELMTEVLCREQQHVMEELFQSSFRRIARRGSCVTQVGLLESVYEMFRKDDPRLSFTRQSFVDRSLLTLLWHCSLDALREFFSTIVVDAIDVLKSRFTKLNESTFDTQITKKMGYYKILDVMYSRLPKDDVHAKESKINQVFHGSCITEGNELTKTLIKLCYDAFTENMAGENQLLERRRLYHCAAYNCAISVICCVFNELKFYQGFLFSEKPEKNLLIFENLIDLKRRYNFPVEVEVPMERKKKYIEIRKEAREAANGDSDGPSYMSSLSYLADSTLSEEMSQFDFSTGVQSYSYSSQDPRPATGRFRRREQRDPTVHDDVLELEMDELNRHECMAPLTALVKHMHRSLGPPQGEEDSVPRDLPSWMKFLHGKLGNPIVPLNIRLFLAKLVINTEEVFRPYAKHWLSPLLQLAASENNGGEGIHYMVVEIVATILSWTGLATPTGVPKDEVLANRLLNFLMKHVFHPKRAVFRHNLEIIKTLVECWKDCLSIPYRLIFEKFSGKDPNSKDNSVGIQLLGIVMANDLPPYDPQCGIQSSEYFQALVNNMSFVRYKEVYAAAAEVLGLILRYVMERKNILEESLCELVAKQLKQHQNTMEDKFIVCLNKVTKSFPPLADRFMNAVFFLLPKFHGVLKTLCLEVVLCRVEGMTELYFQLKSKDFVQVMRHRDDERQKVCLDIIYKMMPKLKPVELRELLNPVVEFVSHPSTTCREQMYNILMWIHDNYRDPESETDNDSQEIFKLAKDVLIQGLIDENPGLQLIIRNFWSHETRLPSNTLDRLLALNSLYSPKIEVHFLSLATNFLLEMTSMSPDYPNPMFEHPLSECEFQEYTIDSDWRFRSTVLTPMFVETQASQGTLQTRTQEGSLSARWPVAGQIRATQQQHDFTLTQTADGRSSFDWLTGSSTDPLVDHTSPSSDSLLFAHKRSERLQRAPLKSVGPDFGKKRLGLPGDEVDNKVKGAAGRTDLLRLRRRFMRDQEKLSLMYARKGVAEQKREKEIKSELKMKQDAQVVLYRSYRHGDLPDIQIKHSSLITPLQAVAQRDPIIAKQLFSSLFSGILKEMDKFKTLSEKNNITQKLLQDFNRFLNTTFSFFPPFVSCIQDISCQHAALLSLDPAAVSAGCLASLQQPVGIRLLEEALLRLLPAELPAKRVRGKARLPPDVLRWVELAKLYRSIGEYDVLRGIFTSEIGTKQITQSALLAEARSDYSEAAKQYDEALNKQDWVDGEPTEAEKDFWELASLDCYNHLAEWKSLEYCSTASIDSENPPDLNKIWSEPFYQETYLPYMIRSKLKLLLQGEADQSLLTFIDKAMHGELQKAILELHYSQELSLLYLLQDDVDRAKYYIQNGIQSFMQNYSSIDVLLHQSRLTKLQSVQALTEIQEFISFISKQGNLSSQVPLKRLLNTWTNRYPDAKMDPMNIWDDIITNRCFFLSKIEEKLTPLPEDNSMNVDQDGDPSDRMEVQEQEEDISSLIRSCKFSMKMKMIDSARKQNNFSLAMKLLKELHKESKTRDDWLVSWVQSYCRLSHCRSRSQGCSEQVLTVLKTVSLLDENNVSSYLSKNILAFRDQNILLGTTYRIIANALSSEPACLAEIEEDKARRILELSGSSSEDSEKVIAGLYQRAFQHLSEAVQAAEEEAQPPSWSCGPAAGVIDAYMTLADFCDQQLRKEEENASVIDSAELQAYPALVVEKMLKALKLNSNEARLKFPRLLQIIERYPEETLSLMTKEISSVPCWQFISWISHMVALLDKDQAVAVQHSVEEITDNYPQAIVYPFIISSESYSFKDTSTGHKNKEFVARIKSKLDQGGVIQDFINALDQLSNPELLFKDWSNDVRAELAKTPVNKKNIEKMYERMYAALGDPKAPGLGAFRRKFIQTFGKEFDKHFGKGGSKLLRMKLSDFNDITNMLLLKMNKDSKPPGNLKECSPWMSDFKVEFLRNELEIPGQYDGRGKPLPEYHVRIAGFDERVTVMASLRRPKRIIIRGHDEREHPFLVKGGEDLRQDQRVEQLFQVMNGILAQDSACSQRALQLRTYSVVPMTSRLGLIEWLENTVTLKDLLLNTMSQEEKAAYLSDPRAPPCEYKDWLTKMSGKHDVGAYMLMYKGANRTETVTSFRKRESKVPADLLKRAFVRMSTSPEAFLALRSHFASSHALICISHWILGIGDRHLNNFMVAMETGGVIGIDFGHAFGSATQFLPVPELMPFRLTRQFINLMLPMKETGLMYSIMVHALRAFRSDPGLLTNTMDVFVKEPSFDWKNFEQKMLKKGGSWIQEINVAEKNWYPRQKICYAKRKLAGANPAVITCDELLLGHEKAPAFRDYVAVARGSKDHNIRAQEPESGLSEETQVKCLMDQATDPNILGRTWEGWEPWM

Take `Cc1ccc(-c2ccc3c(ccc4sc5c(c43)NC[C@@H](C)NC5=O)n2)cn1`: the % of inhibition in assay [1] was -6%. Turning to `Nc1cnc(N2CCc3cc(S(=O)(=O)Nc4c(F)cc(Cl)cc4F)cc(N4CCCC4=O)c32)nc1` [TP-020n], in [2], the % of control was 86%. `CCC(=O)N1CCN(c2ccc(-n3c(=O)ccc4cnc5ccc(-c6cnc7ccccc7c6)cc5c43)cc2C(F)(F)F)CC1`: in assay [3], the % of control was determined as 54%. For `CN(C)CCOc1ccc(-c2nc(-c3ccncc3)c(-c3ccc4c(c3)CC/C4=N\O)[nH]2)cc1`, the % of control in [4] is 59%. Take `CNC(=O)Nc1ccc(-c2nc(N3CC4CCC(C3)O4)c3cnn(C4CCC5(CC4)OCCO5)c3n2)cc1`: in assay [5], the % of control came to 100%.

In the case of `CC[C@@H]1[C@H](F)C(=O)N[C@@H]1COc1nccc2cc(C(N)=O)c(OC)cc12` [ZIMLOVISERTIB], the % of inhibition in [6] was 20.8%; in assay [7] (at 0.01 µM), -25.6%; in assay [7] (at 0.04 µM) it was -4.8%; in assay [7] (at 0.2 µM), -3.6%; in assay [7] (at 1 µM), 3.1%; in assay [7] (at 5 µM), 18.5%.

`COc1cc(N(C)c2ccnc3ccc(C(F)(F)F)cc23)cc(OC)c1OC` came in with a % binding in assay [8] of 85%. For the compound `N#Cc1cccc(-c2c[nH]c3ncnc(N4CCOCC4)c23)c1`, the % of inhibition in assay [9] was 15%.
